Source: EPA's ToxRefDB 2

Columns and labels:
[1] = test system: dog; details: Subchronic oral toxicity in nonrodent, beagle, Water, dose end: 90 day, group: systemic, systemic / in life observation / clinical signs / vomitting
[2] = test system: rat; details: Multigenerational reproductive toxicity study, sprague dawley, Oral, Water, dose end: 2 generation
[3] = test system: rat; details: Prenatal developmental toxicity study, wistar, Oral, Gavage/Intubation, dose end: 15 GD
[4] = test system: mouse; details: Chronic toxicity; b6c3f1; Inhalation; Whole-Body; dose end: 78 week; group: systemic; systemic / in life observation / body weight / body weight gain + systemic / pathology microscopic / nose / hyperplasia
[5] = test system: rat; details: Multigenerational reproductive toxicity study, wistar, Oral, Water, dose end: 2 generation
[6] = test system: rabbit; details: Prenatal developmental toxicity study, himalayan, Oral, Gavage/Intubation, dose end: 19 GD
[7] = test system: rat; details: Combined chronic toxicity/carcinogenicity, fischer, Oral, Water, dose end: 104 week, group: systemic
[8] = test system: rat; details: Subchronic inhalation toxicity, fischer, Whole-Body, dose end: 13 week, group: systemic
[9] = test system: rat; details: Carcinogenicity, wistar, Oral, Water, dose end: 24 month, group: systemic
[10] = test system: rat; details: Chronic toxicity, wistar, Oral, Water, dose end: 12 month, group: systemic
[11] = test system: rat; details: Subchronic dermal toxicity, sprague dawley, Topical, dose end: 90 day, group: systemic, systemic / pathology gross / skin / scabbing + systemic / pathology microscopic / skin / acanthosis + systemic / pathology microscopic / …
[12] = test system: mouse; details: Subchronic oral toxicity in rodents, cd1, Water, dose end: 90 day, group: systemic, systemic / pathology microscopic / stomach / inflammation + systemic / urinalysis / specific gravity/osmolality / specific gravity/…
[13] = test system: mouse; details: Subchronic inhalation toxicity, b6c3f1, Whole-Body, dose end: 13 week
[14] = test system: rat; details: Multigenerational reproductive toxicity study, sprague dawley, Oral, Water, dose end: 2 generation; remark: listed apart in the source
[15] = test system: rat; details: Multigenerational reproductive toxicity study; sprague dawley; Oral; Feed; dose end: 2 generation; group: offspring; systemic / in life observation / body weight / offspring (pup) weight
[16] = test system: mouse; details: Carcinogenicity, cd1, Oral, Feed, dose end: 104 week, group: systemic
[17] = test system: rat; details: Prenatal developmental toxicity study, sprague dawley, Oral, Gavage/Intubation, dose end: 15 GD
[18] = test system: rat; details: Subchronic oral toxicity in rodents, fischer, Water, dose end: 3 month, group: systemic, systemic / clinical chemistry / alanine aminotransferase (alt/sgpt) / alanine aminotransferase (alt/sgpt) + systemic / clinical chemistry / …
[19] = test system: mouse; details: Subchronic oral toxicity in rodents, b6c3f1, Water, dose end: 3 month, group: systemic
[20] = test system: rat; details: Combined chronic toxicity/carcinogenicity, fischer, Oral, Water, dose end: 105 week, group: systemic
[21] = test system: mouse; details: Combined chronic toxicity/carcinogenicity, b6c3f1, Oral, Water, dose end: 105 week, group: systemic
[22] = group: offspring, systemic / in life observation / body weight / offspring (pup) weight
[23] = group: parental, systemic / in life observation / food consumption / food consumption
[24] = group: parental, systemic / in life observation / food consumption / food consumption + systemic / pathology gross / lymph node / enlarged + systemic / …
[25] = group: developmental, systemic / in life observation / body weight / fetal weight
[26] = group: maternal, systemic / in life observation / body weight / body weight gain + systemic / in life observation / clinical signs / piloerection + systemic…
[27] = group: maternal, systemic / in life observation / clinical signs / piloerection
[28] = group: offspring, systemic / in life observation / body weight / litter weight + systemic / in life observation / body weight / offspring (pup) weight
[29] = group: parental, systemic / in life observation / body weight / body weight + systemic / in life observation / body weight / body weight gain + systemic / in…
[30] = group: parental, systemic / in life observation / water consumption / water consumption
[31] = group: maternal, systemic / in life observation / body weight / body weight + systemic / in life observation / body weight / body weight gain + systemic / in…
[32] = systemic / organ weight / kidney / relative to body weight + systemic / in life observation / clinical signs / urine staining - perineum + …
[33] = systemic / organ weight / kidney / relative to body weight + systemic / pathology gross / stomach / [other] + systemic / clinical chemistry…
[34] = systemic / pathology microscopic / nose / [other] + systemic / pathology microscopic / nose / hyperplasia + systemic / pathology microscopic…
[35] = systemic / in life observation / water consumption / water consumption
[36] = systemic / in life observation / body weight / body weight gain + systemic / pathology gross / stomach / erosion + systemic / pathology …
[37] = group: developmental, developmental / developmental malformation / penis / paraphimosis
[38] = group: maternal, reproductive / reproductive performance / estrous cycle / abnormal
[39] = group: systemic, systemic / pathology microscopic / nose / inflammation
[40] = group: systemic, systemic / pathology microscopic / nose / inflammation + systemic / in life observation / body weight / body weight gain
[41] = group: offspring, systemic / in life observation / body weight / offspring (pup) weight gain
[42] = systemic / in life observation / body weight / body weight gain + systemic / pathology microscopic / intestine small / hyperplasia + …
[43] = group: developmental, developmental / developmental malformation / bone / absent + developmental / developmental malformation / bone / fused + developmental / …
[44] = group: maternal, systemic / in life observation / clinical signs / alopecia + systemic / in life observation / clinical signs / defecation (diarrhea) + …
[45] = systemic / hematology / erythrocyte (rbc) count differential / erythrocyte (rbc) + systemic / hematology / hemoglobin (hgb) / hemoglobin (…
[46] = systemic / hematology / mean corpuscular hemoglobin (mch) / mean corpuscular hemoglobin (mch) + systemic / pathology microscopic / intestine…
[47] = systemic / pathology microscopic / liver / inflammation
[48] = systemic / pathology microscopic / oral mucosa / squamous cell carcinoma + systemic / clinical chemistry / alanine aminotransferase (alt/…
[49] = systemic / pathology microscopic / intestine small / adenoma + systemic / pathology microscopic / intestine small / carcinoma + systemic / …
[50] = systemic / pathology microscopic / intestine small / hyperplasia + systemic / pathology microscopic / lymph node / infiltration cellular + …

With O=CCCCC=O [Glutaraldehyde] the LEL [1] was 14.6 mg/kg/day, the LOAEL [1] was 14.6 mg/kg/day and the NEL [1] was 9.8 mg/kg/day. For the same compound, the NOAEL [1] was 9.8 mg/kg/day, the LEL [2, 22] was 71.1 mg/kg/day and the LOAEL [2, 22] was 71.1 mg/kg/day. For the same compound, the NEL [2, 22] was 20.9 mg/kg/day, the NOAEL [2, 22] was 20.9 mg/kg/day and the LEL [2, 23] was 19.5 mg/kg/day. For the same compound, the LOAEL [2, 23] was 19.5 mg/kg/day, the NEL [2, 24] was 4.25 mg/kg/day and the NOAEL [2, 24] was 4.25 mg/kg/day. For the same compound, the LEL [3, 25] was 100 mg/kg/day, the LOAEL [3, 25] was over 100 mg/kg/day and the NEL [3, 25] was 50 mg/kg/day. It also gave an NOAEL [3, 25] of at least 100 mg/kg/day, an LOAEL [3, 26] of over 100 mg/kg/day and an NOAEL [3, 26] of at least 100 mg/kg/day. For the same compound, the LEL [3, 27] was 25 mg/kg/day, the NEL [3, 27] was under 25 mg/kg/day and the LEL [4] was 0.1 ppm. The LOAEL [4] was over 0.1 ppm, the NEL [4] was under 0.1 ppm and the NOAEL [4] was at least 0.1 ppm. The LEL [5, 28] was 76 mg/kg/day, the LOAEL [5, 28] was 76 mg/kg/day and the NEL [5, 28] was 22.4 mg/kg/day. The NOAEL [5, 28] was 22.4 mg/kg/day, the LOAEL [5, 29] was 76 mg/kg/day and the NOAEL [5, 29] was 22.4 mg/kg/day. For the same compound, the LEL [5, 30] was 22.4 mg/kg/day, the NEL [5, 30] was 4.7 mg/kg/day and the LEL [6, 25] was 45 mg/kg/day. The LOAEL [6, 25] was 45 mg/kg/day, the NEL [6, 25] was 15 mg/kg/day and the NOAEL [6, 25] was 15 mg/kg/day. For the same compound, the LEL [6, 31] was 45 mg/kg/day, the LOAEL [6, 31] was 45 mg/kg/day and the NEL [6, 31] was 15 mg/kg/day. It also gave an NOAEL [6, 31] of 15 mg/kg/day, an LEL [7, 32] of 4 mg/kg/day and an NEL [7, 32] of under 4 mg/kg/day. The LOAEL [7, 33] was over 64 mg/kg/day, the NOAEL [7, 33] was at least 64 mg/kg/day and the LEL ([8]; systemic / hematology / neutrophils / neutrophils) was 0.125 ppm. For the same compound, the NEL ([8]; systemic / hematology / neutrophils / neutrophils + systemic / clinical chemistry / alanine aminotransferase (alt/sgpt) / alanine …) was 0.0625 ppm, the LOAEL [8, 34] was 0.25 ppm and the NOAEL [8, 34] was 0.125 ppm. For the same compound, the LEL [9, 35] was 5.3 mg/kg/day, the NEL [9, 35] was under 5.3 mg/kg/day and the LOAEL ([9]; systemic / pathology microscopic / larynx / metaplasia) was 61 mg/kg/day. The NOAEL ([9]; systemic / pathology microscopic / larynx / metaplasia + systemic / in life observation / body weight / body weight + systemic / in life …) was 16.1 mg/kg/day, the LOAEL [10, 36] was 58.9 mg/kg/day and the NOAEL [10, 36] was 15.4 mg/kg/day. The LEL ([10]; systemic / pathology gross / pituitary gland / enlarged) was 23.2 mg/kg/day, the NEL ([10]; systemic / pathology gross / pituitary gland / enlarged + systemic / in life observation / clinical signs / abnormal respiratory sounds + …) was 4.8 mg/kg/day and the LEL [11] was 50 mg/kg/day. For the same compound, the LOAEL [11] was 50 mg/kg/day, the NEL [11] was under 50 mg/kg/day and the NOAEL [11] was under 50 mg/kg/day. It also gave an LEL [12] of 200 mg/kg/day, an LOAEL [12] of 200 mg/kg/day and an NEL [12] of 60.8 mg/kg/day. For the same compound, the NOAEL [12] was 60.8 mg/kg/day, the LEL [13, 37] was 1 ppm and the LOAEL [13, 37] was over 1 ppm. For the same compound, the NEL [13, 37] was 0.5 ppm, the NOAEL [13, 37] was at least 1 ppm and the LEL [13, 38] was 0.5 ppm. For the same compound, the LOAEL [13, 38] was over 1 ppm, the NEL [13, 38] was 0.25 ppm and the NOAEL [13, 38] was at least 1 ppm. It also gave an LOAEL [13, 39] of 0.0625 ppm, an NOAEL [13, 39] of under 0.0625 ppm and an LEL [13, 40] of 0.0625 ppm. The NEL [13, 40] was under 0.0625 ppm, the LEL [14, 41] was 98.4 mg/kg/day and the LOAEL [14, 41] was 98.4 mg/kg/day. The NEL [14, 41] was 28.3 mg/kg/day, the NOAEL [14, 41] was 28.3 mg/kg/day and the LEL [14, 30] was 19.5 mg/kg/day. It also gave an LOAEL [14, 30] of over 69.1 mg/kg/day, an NEL [14, 30] of 4.25 mg/kg/day and an NOAEL [14, 30] of at least 69.1 mg/kg/day.

N#CSCSc1nc2ccccc2s1 [2-(Thiocyanomethylthio)benzothiazole] showed an LEL [15] of 38.4 mg/kg/day, an LOAEL [15] of 38.4 mg/kg/day and an NEL [15] of 9.6 mg/kg/day. It also gave an NOAEL [15] of 9.6 mg/kg/day, an LOAEL ([16]; systemic / in life observation / body weight / body weight gain + systemic / pathology microscopic / intestine small / hyperplasia) of 148 mg/kg/day and an LEL [16, 42] of 148 mg/kg/day. It also gave an NEL [16, 42] of 49.3 mg/kg/day, an NOAEL [16, 42] of 49.3 mg/kg/day and an LEL [17, 43] of 126 mg/kg/day. The LOAEL [17, 43] was 126 mg/kg/day, the NEL [17, 43] was 76.5 mg/kg/day and the NOAEL [17, 43] was 76.5 mg/kg/day. The LEL [17, 44] was 76.5 mg/kg/day, the LOAEL [17, 44] was 76.5 mg/kg/day and the NEL [17, 44] was 25.1 mg/kg/day. It also gave an NOAEL [17, 44] of 25.1 mg/kg/day.

In the case of O.O.[Na+].[Na+].[O]=[Cr](=[O])([O-])[O][Cr](=[O])(=[O])[O-] [Sodium dichromate(VI) dihydrate], the LEL [18] is reported as 5 mg/kg/day, the LOAEL [18] is reported as over 60 mg/kg/day and the NEL [18] is reported as under 5 mg/kg/day. It also gave an NOAEL [18] of at least 60 mg/kg/day, an LOAEL [19, 45] of over 80 mg/kg/day and an NOAEL [19, 45] of at least 80 mg/kg/day. It also gave an LEL [19, 46] of 9 mg/kg/day, an NEL [19, 46] of under 9 mg/kg/day and an LEL [20, 47] of 0.7 mg/kg/day. The NEL [20, 47] was under 0.7 mg/kg/day, the LOAEL [20, 48] was over 17 mg/kg/day and the NOAEL [20, 48] was at least 17 mg/kg/day. The LOAEL [21, 49] was over 17 mg/kg/day, the NOAEL [21, 49] was at least 17 mg/kg/day and the LEL [21, 50] was 1.1 mg/kg/day. For the same compound, the NEL [21, 50] was under 1.1 mg/kg/day.
